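The compound was tested at five concentrations on cells cultured in 96-well plates, with a 48-hour exposure period. Abbreviation: GI50, concentration required for 50% inhibition of growth. Definition used: TGI = concentration required for complete inhibition of growth.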

Results on 13 compounds are retold here after PubChem BioAssay (NCI).

Some test systems named below: LOX IMVI melanoma; PC-3 prostate; HL-60(TB) leukemia; HT29 colon; DU-145 prostate; CCRF-CEM leukemia; HCT-116 colon; HOP-62 NSCLC; SNB-19 CNS; MDA-MB-435.
Holding throughout (assay): NCI tumour cell line growth inhibition, 48 h

As for `Nc1ccccc1NC(=O)c1ccc(CN2CCC/C(=C\c3cccc(Cl)c3)C2=O)cc1`, the GI50 is 0.0664 µM in the assay with LOX IMVI melanoma; 0.463 µM with PC-3 prostate; 0.449 µM with HL-60(TB) leukemia; 0.144 µM with HT29 colon; 0.432 µM in the assay on DU-145 prostate; 0.866 µM in the assay with CCRF-CEM leukemia. Also, the GI50 in the assay with HCT-116 colon was 0.0448 µM; in the assay with HOP-62 NSCLC, 0.388 µM; with SNB-19 CNS, 0.355 µM. The TGI was 2.06 µM with LOX IMVI melanoma; 14.1 µM in the assay on PC-3 prostate; 4.89 µM in the assay with HL-60(TB) leukemia; 1.89 µM in the assay with HT29 colon; 25.7 µM with DU-145 prostate; more than 100 µM with CCRF-CEM leukemia. Besides, the TGI in the assay on HCT-116 colon, in the assay with HOP-62 NSCLC and in the assay with SNB-19 CNS was more than 100 µM throughout.
On to `CCC[CH2][Sn]([CH2]CCC)([O]C(=O)c1nccnc1N)[O]C(=O)c1nccnc1N`, for which the GI50 with LOX IMVI melanoma is 0.365 µM; in the assay on HL-60(TB) leukemia, 0.262 µM; in the assay on HT29 colon it was 1.59 µM; in the assay with HCT-116 colon, 1.1 µM; in the assay with HOP-62 NSCLC, 2.12 µM; in the assay with SNB-19 CNS it was 1.4 µM. In addition, the TGI in the assay on LOX IMVI melanoma was determined as 1.48 µM; with HL-60(TB) leukemia it was 1.42 µM; with HT29 colon it was 3.05 µM; in the assay with HCT-116 colon, 2.3 µM; in the assay on HOP-62 NSCLC, 3.57 µM; in the assay on SNB-19 CNS, 2.69 µM.
On to `CNC(C)C(=O)N[C@H](C(=O)N1CCC[C@@H]1CN(CCc1ccccc1)C(=O)C(F)(F)F)[C@H](C)OCC#CC#CCO[C@H](C)[C@H](NC(=O)[C@H](C)NC)C(=O)N1CCC[C@H]1CN(CCc1ccccc1)C(=O)C(F)(F)F` (stereo partly drawn), for which the GI50 in the assay on PC-3 prostate was 1.72 µM; in the assay with MDA-MB-435 it was 1.63 µM; with HT29 colon, 0.465 µM; in the assay with DU-145 prostate it was 1.56 µM; with CCRF-CEM leukemia, 0.602 µM; with HCT-116 colon it was 1.43 µM. Moreover, the figures for the GI50 in the assay on HOP-62 NSCLC and in the assay on SNB-19 CNS were 0.729 µM and 1.81 µM, respectively. Moreover, the TGI in the assay on PC-3 prostate was 3.23 µM; in the assay on MDA-MB-435 it was 3.46 µM; with HT29 colon, 1.53 µM; in the assay on DU-145 prostate, 3.05 µM; in the assay with CCRF-CEM leukemia, 2.54 µM; with HCT-116 colon it was 2.78 µM. Moreover, the results for the TGI in the assay on HOP-62 NSCLC and in the assay on SNB-19 CNS were 2.46 µM and 3.43 µM, respectively.
For the compound `O=C(O)C1CCCCN1C(=O)c1ccccc1` (stereo not drawn), the TGI with LOX IMVI melanoma, with HL-60(TB) leukemia, in the assay on HT29 colon, with CCRF-CEM leukemia, in the assay with HCT-116 colon and in the assay with HOP-62 NSCLC was more than 100 µM throughout. The compound also gave a TGI in the assay with SNB-19 CNS of more than 100 µM.
Consider `COC(=O)[C@H](CC(C)C)NC(=O)NC(=O)NC(=O)CI`, for which the GI50 is 1.64 µM with LOX IMVI melanoma; 11.8 µM with PC-3 prostate; 6.1 µM with MDA-MB-435; 1.93 µM with HT29 colon; 14 µM with DU-145 prostate; 10 µM with HCT-116 colon. The GI50 with HOP-62 NSCLC is 18.2 µM; in the assay on SNB-19 CNS it was 18 µM. In addition, the TGI stood at 3.24 µM in the assay on LOX IMVI melanoma; 25.7 µM with PC-3 prostate; 19.2 µM with MDA-MB-435; 3.59 µM with HT29 colon; 27 µM in the assay on DU-145 prostate; 22.8 µM with HCT-116 colon. The TGI turned out to be 34.2 µM with HOP-62 NSCLC and 37.1 µM in the assay with SNB-19 CNS.
With `C=C(CS(=O)(=O)c1ccccc1)[P+](c1ccccc1)(c1ccccc1)c1ccccc1`, the TGI was 30 µM with LOX IMVI melanoma; 32.6 µM in the assay on HL-60(TB) leukemia; 37.3 µM in the assay with HT29 colon; 25 µM in the assay on CCRF-CEM leukemia; 25.2 µM in the assay with HCT-116 colon; 90 µM with HOP-62 NSCLC. Besides, the TGI in the assay with SNB-19 CNS is more than 100 µM.
With `O=C(O)CCC1(Br)CCCCC(Br)C1=O` (stereo not drawn), the TGI in the assay on HL-60(TB) leukemia, in the assay on HT29 colon, in the assay with CCRF-CEM leukemia, in the assay on HCT-116 colon, in the assay with HOP-62 NSCLC and in the assay with SNB-19 CNS was more than 100 µM each time.
Consider `C/C(=N/NC(=O)C(N)=O)C(CC(C(=O)Nc1ccccc1C)/C(C)=N\NC(=O)C(N)=O)C(=O)Nc1ccccc1C` (stereo not drawn), for which the TGI in the assay with LOX IMVI melanoma, in the assay with HL-60(TB) leukemia, in the assay on HT29 colon, in the assay on CCRF-CEM leukemia, in the assay on HOP-62 NSCLC and with SNB-19 CNS was more than 100 µM each time.
With `CC(=O)OC1C(CCl)OC(N=[N+]=[N-])C(OC(C)=O)C1OC(C)=O` (stereo not drawn), the TGI in the assay with HL-60(TB) leukemia, in the assay with HT29 colon, in the assay with CCRF-CEM leukemia, in the assay on HCT-116 colon, in the assay with HOP-62 NSCLC and with SNB-19 CNS was more than 100 µM in each case.
With `CC(C)(C)[Si](C)(C)O/N=C\c1ccc(O[Si](C)(C)C(C)(C)C)cc1`, the TGI with LOX IMVI melanoma is 40.1 µM; in the assay on HL-60(TB) leukemia it was more than 100 µM; with HT29 colon, more than 100 µM; in the assay with CCRF-CEM leukemia, more than 100 µM; with HCT-116 colon it was 63 µM; in the assay on HOP-62 NSCLC it was more than 100 µM. In the assay with SNB-19 CNS, this compound showed a TGI of more than 100 µM.
As to `C=C1Oc2nc3ccccc3c(=O)n2C1(C)C`, the TGI in the assay with LOX IMVI melanoma, with HL-60(TB) leukemia, in the assay on HT29 colon, with CCRF-CEM leukemia, with HCT-116 colon and with HOP-62 NSCLC was more than 100 µM each time. In the assay on SNB-19 CNS, this compound showed a TGI of more than 100 µM.
As to `NCC1OC(OC2C(CO)OC(OC3C(O)C(N)CC(N)C3OC3OC(CO)C(O)C(O)C3N)C2O)C(N)C(O)C1O` (stereo not drawn), the GI50 in the assay on LOX IMVI melanoma, in the assay with PC-3 prostate, in the assay with MDA-MB-435, in the assay on HT29 colon, with HCT-116 colon and with HOP-62 NSCLC was more than 50 µg/mL in each case. For the same compound, in the assay with SNB-19 CNS, the GI50 is more than 50 µg/mL. Also, the TGI in the assay on LOX IMVI melanoma, in the assay on PC-3 prostate, in the assay on MDA-MB-435, in the assay with HT29 colon, in the assay with HCT-116 colon and with HOP-62 NSCLC was more than 50 µg/mL each time. Also, in the assay on SNB-19 CNS, the TGI is more than 50 µg/mL.
For `CC(C)c1cccc(C(C)C)c1NC(=O)C(=O)C(C(=O)c1ccc2ccccc2c1)C1OC(=O)c2ccccc21` (stereo not drawn), the TGI with LOX IMVI melanoma, in the assay on HT29 colon, in the assay on CCRF-CEM leukemia, in the assay on HCT-116 colon, in the assay on HOP-62 NSCLC and with SNB-19 CNS was more than 100 µM each time.
